Laboratory results from ChEMBL document CHEMBL1128253, “Synthesis and anti-HIV-1 activity of 4,5,6,7-tetrahydro-5-methylimidazo-[4,5,1-jk][1,4]benzodiazepin- 2(1H)-one (TlBO) derivatives. 4” (J Med Chem, 1995).

tested on: Human immunodeficiency virus 1; test: Concentration required for 50% protection of MT-4 cells against the cytopathic effect of HIV-1; format: functional, organism-based; details: Human immunodeficiency virus 1, MT4

Structure (SMILES)	IC50 [nM]
CCC(=CCN1Cc2cc(C(C)(C)C)cc3nc(O)n(c23)C[C@@H]1C)CC	314
Cc1cn([C@H]2C[C@H](N=[N+]=[N-])[C@@H](CO)O2)c(=O)[nH]c1=O [ZIDOVUDINE]	4.1
CCOc1ccc2[nH]c(=S)n3c2c1CN(CC=C(C)C)[C@@H](C)C3	95.9
CC(C)=CCN1Cc2c(C)ncc3nc(O)n(c23)CC1C (stereo unspecified)	872000
Cc1ncc2nc(O)n3c2c1CN(CC1CC1)C(C)C3 (stereo unspecified)	596000
CC(C)=CCN1Cc2c(C(N)=O)ccc3[nH]c(=O)n(c23)C[C@@H]1C	6360
CC(C)=CCN1Cc2ccc(Br)c3nc(S)n(c23)C[C@@H]1C	1080
CC(C)=CCN1Cc2c(I)ccc3[nH]c(=S)n(c23)C[C@@H]1C	47.4
CC(C)=CCN1Cc2c(Cl)ccc3[nH]c(=S)n(c23)C[C@@H]1C [TIVIRAPINE]	4.3
COc1ccc2[nH]c(=S)n3c2c1CN(CC=C(C)C)[C@@H](C)C3	33.9
CC(C)=CCN1Cc2cc(Cl)c(Cl)c3nc(S)n(c23)C[C@@H]1C	25.5
C[C@H]1Cn2c(=O)[nH]c3cc([N+](=O)[O-])cc(c32)CN1CC1CC1	33400
CC(C)=CCN1Cc2cc(C(F)(F)F)cc3nc(S)n(c23)C[C@@H]1C	485
CCC(=CCN1Cc2c(C)ncc3nc(S)n(c23)CC1C)CC (stereo unspecified)	243
CC(C)=CCN1Cc2c(I)ccc3[nH]c(=O)n(c23)C[C@@H]1C	88
CC(C)=CCN1Cc2cc(Cl)cc3[nH]c(=S)n(c23)C[C@@H]1C	34
CC(C)=CCN1Cc2cc(F)cc3nc(S)n(c23)C[C@@H]1C	25
COc1ccc2c3c1[nH]c(=S)n3C[C@H](C)N(CC=C(C)C)C2	4720
CC(C)=CCN1Cc2cc(C(F)(F)F)cc3nc(O)n(c23)C[C@@H]1C	5920
COc1ccc2c3c1[nH]c(=O)n3C[C@H](C)N(CC=C(C)C)C2	6630
CSc1ccc2[nH]c(=S)n3c2c1CN(CC=C(C)C)[C@@H](C)C3	5

Further lines, results first:

IC50 [nM]	Structure (SMILES)
60600	C[C@H]1Cn2c(=O)[nH]c3cc(N)cc(c32)CN1CC1CC1
3	CC(C)=CCN1Cc2c(Br)ccc3nc(S)n(c23)C[C@@H]1C
1140	CC(C)=CCN1Cc2c(C#N)ccc3nc(O)n(c23)C[C@@H]1C
188	CC(C)=CCN1Cc2c(C=O)ccc3nc(S)n(c23)C[C@@H]1C
6650	C[C@H]1Cn2c(=O)[nH]c3cc(N(C)C)cc(c32)CN1CC1CC1
56.3	CC(C)=CCN1Cc2c(C#N)ccc3nc(S)n(c23)C[C@@H]1C
> 2000	CCC(=CCN1Cc2c(C)ncc3nc(O)n(c23)CC1C)CC (stereo unspecified)
13.6	CC(C)=CCN1Cc2c(C)ccc3nc(S)n(c23)C[C@@H]1C
438	C#Cc1ccc2nc(O)n3c2c1CN(CC=C(C)C)[C@@H](C)C3
29.6	C#Cc1ccc2nc(S)n3c2c1CN(CC=C(C)C)[C@@H](C)C3
47.3	CC(C)=CCN1Cc2c(Br)ccc3nc(O)n(c23)C[C@@H]1C
5.8	CC(C)=CCN1Cc2c(F)ccc3nc(S)n(c23)C[C@@H]1C
159000	CC(=O)Nc1cc2c3c(c1)[nH]c(=O)n3C[C@H](C)N(CC1CC1)C2
> 5940	CCc1ccc2nc(O)n3c2c1CN(CC=C(C)C)[C@@H](C)C3
849000	C[C@H]1Cn2c(=O)[nH]c3ccc(N)c(c32)CN1CC1CC1
> 796000	CC(=O)Nc1ccc2nc(O)n3c2c1CN(CC1CC1)[C@@H](C)C3
989	CC(C)=CCN1Cc2c(C)ccc3nc(O)n(c23)C[C@@H]1C
6650	C[C@H]1Cn2c(=O)[nH]c3ccc(N(C)C)c(c32)CN1CC1CC1
2450	C[C@H]1Cn2c(=S)[nH]c3cc([N+](=O)[O-])cc(c32)CN1CC1CC1

tested on: MT4; test: Effective concentration of compound required to achieve 50% protection of MT-4 cells against the cytopathic effect of HIV-1; format: functional, cell-based; details: Homo sapiens

Structure (SMILES)	IC50 [nM]
CC(C)=CCN1Cc2cccc3[nH]c(=S)n(c23)C[C@@H]1C	44
